Among the data in patent US8802678B2, “Carbonylated (aza) cyclohexanes as dopamine D3 receptor ligands” (Bioprojet, priority 2006, dated 2014) are Ki and melting point values, retold here.

Molecules are shown by their SMILES.

The term Ki denotes a dissociation constant, usually derived from enzyme kinetics or from competition with a known ligand. Read a high Ki as weaker binding. In general, melting point refers to the temperature, or range, at which the solid turns liquid.

One data set deals with human D3 receptor (Homo sapiens, UniProt P35462). The data set is described as follows: [3H]spiperone binding, membranes of CHO cells transfected with human D3 receptor cDNA. The following applies: affinity for the human D3 receptor; [3H]spiperone 0.5-2 nM, CHO-hD3 membranes, 60 minutes at room temperature. The method, then:
Affinity of compounds for the human D3 receptor can be determined by [^3H] spiperone binding CHO cells have been transfected by the cDNA coding for the human D3 receptor (hD3). [^3H]Spiperone (0.5 à 2 nM) binding is performed in the presence of 2.5 to 5 μg of membrane proteins in a medium containing 120 mM NaCl, 5 mM KCl, and 50 mM Tris HCl pH 7.4; incubation for 60 minutes at room temperature is performed. Non specific binding is estimated in the presence of 10 μM haloperidol. Non transfected cells are devoid of any specific binding.

Chain of human D3 receptor (P35462 whole entry): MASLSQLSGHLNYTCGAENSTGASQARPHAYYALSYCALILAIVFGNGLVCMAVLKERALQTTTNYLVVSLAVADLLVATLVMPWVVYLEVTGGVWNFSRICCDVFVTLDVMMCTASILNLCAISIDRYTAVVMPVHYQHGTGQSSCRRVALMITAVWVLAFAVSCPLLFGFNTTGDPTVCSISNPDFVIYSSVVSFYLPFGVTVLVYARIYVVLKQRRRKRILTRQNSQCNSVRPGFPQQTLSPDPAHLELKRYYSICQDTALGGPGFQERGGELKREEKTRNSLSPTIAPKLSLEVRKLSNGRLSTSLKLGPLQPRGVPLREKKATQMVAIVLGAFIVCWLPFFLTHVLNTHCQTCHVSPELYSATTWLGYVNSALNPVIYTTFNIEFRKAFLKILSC

For the compound `COCC(=O)N[C@H]1CC[C@H](CCN2CC=C(c3cccc(C)c3C#N)CC2)CC1` [Example 54, N-(4-{2-[4-(2-Cyano-3-methylphenyl)-3,6-dihydro-2H-pyridin-1-yl]ethyl}cyclohexyl)-2-methoxyacetamide], the melting point stood at 158 °C. Besides, on human D3 receptor, the affinity, expressed as Ki, was 18.3 nM.

`O=C(N[C@H]1CC[C@H](CCN2CCN(c3ccccn3)CC2)CC1)C1CC=CC1` [Example 65, Cyclopent-3-enecarboxylic acid {4-[2-(4-pyridin-2-ylpiperazin-1-yl)ethyl]cyclohexyl}amide] had a melting point of 208 °C. The same compound gave a Ki at human D3 receptor of 31.6 nM.

As to `N#Cc1ccc2c(c1)CCN(CC[C@H]1CC[C@H](NC(=O)CC(F)(F)F)CC1)C2` [Example 110, N-{4-[2-(6-Cyano-3,4-dihydro-1H-isoquinolin-2-yl)ethyl]cyclohexyl}-3,3,3-trifluoropropanamide], the melting point was found to be 215 °C. The compound also came in with a Ki at human D3 receptor of 10.6 nM.

Take `NC(=O)CCC(=O)N[C@H]1CC[C@H](CCN2CCN(c3ccccc3)CC2)CC1` [Example 187, N-{4-[2-(4-Phenylpiperazin-1-yl)ethyl]cyclohexyl}succinamide]: the melting point turned out to be 252 °C. Also, the affinity on human D3 receptor, expressed as Ki, was 3.9 nM.

Compound `O=C(C=C1CCC(CCN2CCN(c3cccc(C(F)(F)F)c3)CC2)CC1)N1CCCC1` (stereo not shown) [Example 291, 1-Pyrrolidin-1-yl-2-(4-{2-[4-(3-trifluoromethylphenyl)piperazin-1-yl]ethyl}cyclohexylidene) ethanone] registered a melting point of 87 °C. Further, on human D3 receptor, the Ki was 4.4 nM.
